Tested on: NLuc-expressing C. parvum
Assay: NLuc C. parvum IFNγ-KO mouse infection model, oocyst shedding
Assay type: in vivo

CC(C)(CO)Cn1nc(-c2ccc3cc(OC4CC4)ccc3c2)c(C(N)=O)c1N [compound 1708]
RLU Raw (8 mg/kg QD x3, group I, Day 6, Cp Mouse Efficacy 1): 754480 RLU
RLU Raw (8 mg/kg QD x3, group I, Day 7, Cp Mouse Efficacy 1): 2842576 RLU
RLU Raw (8 mg/kg QD x3, group I, Day 8, Cp Mouse Efficacy 1): 17367584 RLU
RLU Raw (8 mg/kg QD x3, group I, Day 9, Cp Mouse Efficacy 1): 4938000 RLU
RLU Raw (8 mg/kg QD x3, group I, Day 10, Cp Mouse Efficacy 1): 9525504 RLU
RLU Raw (8 mg/kg QD x3, group I, Day 13, Cp Mouse Efficacy 1): 2717520 RLU
RLU Raw (8 mg/kg QD x3, group I, Day 15, Cp Mouse Efficacy 1): 2626944 RLU
RLU Raw (8 mg/kg QD x3, group I, Day 17, Cp Mouse Efficacy 1): 5999920 RLU
RLU Raw (8 mg/kg QD x3, group I, Day 20, Cp Mouse Efficacy 1): 14563168 RLU
RLU standardized by fecal weight (8 mg/kg QD x3, group I, day 6 p.i., Cp Mouse Efficacy 1): 118816 RLU
RLU standardized by fecal weight (8 mg/kg QD x3, group I, day 7 p.i., Cp Mouse Efficacy 1): 653466 RLU
RLU standardized by fecal weight (8 mg/kg QD x3, group I, day 8 p.i., Cp Mouse Efficacy 1): 4135139 RLU
RLU standardized by fecal weight (8 mg/kg QD x3, group I, day 9 p.i., Cp Mouse Efficacy 1): 1371667 RLU
RLU standardized by fecal weight (8 mg/kg QD x3, group I, day 10 p.i., Cp Mouse Efficacy 1): 1763982 RLU
RLU standardized by fecal weight (8 mg/kg QD x3, group I, day 13 p.i., Cp Mouse Efficacy 1): 414889 RLU
RLU standardized by fecal weight (8 mg/kg QD x3, group I, day 15 p.i., Cp Mouse Efficacy 1): 314604 RLU
RLU standardized by fecal weight (8 mg/kg QD x3, group I, day 17 p.i., Cp Mouse Efficacy 1): 909079 RLU
RLU standardized by fecal weight (8 mg/kg QD x3, group I, day 20 p.i., Cp Mouse Efficacy 1): 1879118 RLU
RLU Raw (15 mg/kg QD x3, group H, Day 6, Cp Mouse Efficacy 1): 464960 RLU
RLU Raw (15 mg/kg QD x3, group H, Day 7, Cp Mouse Efficacy 1): 131248 RLU
RLU Raw (15 mg/kg QD x3, group H, Day 8, Cp Mouse Efficacy 1): 447488 RLU
RLU Raw (15 mg/kg QD x3, group H, Day 9, Cp Mouse Efficacy 1): 45888 RLU
RLU Raw (15 mg/kg QD x3, group H, Day 10, Cp Mouse Efficacy 1): 5216 RLU
RLU Raw (15 mg/kg QD x3, group H, Day 13, Cp Mouse Efficacy 1): 1120 RLU
RLU Raw (15 mg/kg QD x3, group H, Day 15, Cp Mouse Efficacy 1): 6784 RLU
RLU Raw (15 mg/kg QD x3, group H, Day 17, Cp Mouse Efficacy 1): 944 RLU
RLU Raw (15 mg/kg QD x3, group H, Day 20, Cp Mouse Efficacy 1): 848 RLU
RLU standardized by fecal weight (15 mg/kg QD x3, group H, day 6 p.i., Cp Mouse Efficacy 1): 86104 RLU
RLU standardized by fecal weight (15 mg/kg QD x3, group H, day 7 p.i., Cp Mouse Efficacy 1): 18617 RLU
RLU standardized by fecal weight (15 mg/kg QD x3, group H, day 8 p.i., Cp Mouse Efficacy 1): 49446 RLU
RLU standardized by fecal weight (15 mg/kg QD x3, group H, day 9 p.i., Cp Mouse Efficacy 1): 4543 RLU
RLU standardized by fecal weight (15 mg/kg QD x3, group H, day 10 p.i., Cp Mouse Efficacy 1): 1391 RLU
RLU standardized by fecal weight (15 mg/kg QD x3, group H, day 13 p.i., Cp Mouse Efficacy 1): 89 RLU
RLU standardized by fecal weight (15 mg/kg QD x3, group H, day 15 p.i., Cp Mouse Efficacy 1): 665 RLU
RLU standardized by fecal weight (15 mg/kg QD x3, group H, day 17 p.i., Cp Mouse Efficacy 1): 115 RLU
RLU standardized by fecal weight (15 mg/kg QD x3, group H, day 20 p.i., Cp Mouse Efficacy 1): 86 RLU
RLU Raw (15 mg/kg x 1 days, group G, Day 6, Cp Mouse Efficacy 2): 267600 RLU
RLU Raw (15 mg/kg x 1 days, group G, Day 7, Cp Mouse Efficacy 2): 185696 RLU
RLU Raw (15 mg/kg x 1 days, group G, Day 8, Cp Mouse Efficacy 2): 380816 RLU
RLU Raw (15 mg/kg x 1 days, group G, Day 9, Cp Mouse Efficacy 2): 630928 RLU
RLU Raw (15 mg/kg x 1 days, group G, Day 10, Cp Mouse Efficacy 2): 2410000 RLU
RLU Raw (15 mg/kg x 1 days, group G, Day 13, Cp Mouse Efficacy 2): 338704 RLU
RLU Raw (15 mg/kg x 1 days, group G, Day 15, Cp Mouse Efficacy 2): 51520 RLU
RLU Raw (15 mg/kg x 1 days, group G, Day 17, Cp Mouse Efficacy 2): 66336 RLU
RLU Raw (15 mg/kg x 1 days, group G, Day 20, Cp Mouse Efficacy 2): 43392 RLU
RLU standardized by fecal weight (15 mg/kg x 1 days, group G, day 6 p.i., Cp Mouse Efficacy 2): 18713 RLU
RLU standardized by fecal weight (15 mg/kg x 1 days, group G, day 7 p.i., Cp Mouse Efficacy 2): 21344 RLU
RLU standardized by fecal weight (15 mg/kg x 1 days, group G, day 8 p.i., Cp Mouse Efficacy 2): 110381 RLU
RLU standardized by fecal weight (15 mg/kg x 1 days, group G, day 9 p.i., Cp Mouse Efficacy 2): 122510 RLU
RLU standardized by fecal weight (15 mg/kg x 1 days, group G, day 10 p.i., Cp Mouse Efficacy 2): 529670 RLU
RLU standardized by fecal weight (15 mg/kg x 1 days, group G, day 13 p.i., Cp Mouse Efficacy 2): 94084 RLU
RLU standardized by fecal weight (15 mg/kg x 1 days, group G, day 15 p.i., Cp Mouse Efficacy 2): 6869 RLU
RLU standardized by fecal weight (15 mg/kg x 1 days, group G, day 17 p.i., Cp Mouse Efficacy 2): 20102 RLU
RLU standardized by fecal weight (15 mg/kg x 1 days, group G, day 20 p.i., Cp Mouse Efficacy 2): 10091 RLU
RLU Raw (15 mg/kg x 2 days, group H, Day 6, Cp Mouse Efficacy 2): 505536 RLU
RLU Raw (15 mg/kg x 2 days, group H, Day 7, Cp Mouse Efficacy 2): 606112 RLU
RLU Raw (15 mg/kg x 2 days, group H, Day 8, Cp Mouse Efficacy 2): 78272 RLU
RLU Raw (15 mg/kg x 2 days, group H, Day 9, Cp Mouse Efficacy 2): 75472 RLU
RLU Raw (15 mg/kg x 2 days, group H, Day 10, Cp Mouse Efficacy 2): 77152 RLU
RLU Raw (15 mg/kg x 2 days, group H, Day 13, Cp Mouse Efficacy 2): 20208 RLU
RLU Raw (15 mg/kg x 2 days, group H, Day 15, Cp Mouse Efficacy 2): 12176 RLU
RLU Raw (15 mg/kg x 2 days, group H, Day 17, Cp Mouse Efficacy 2): 9280 RLU
RLU Raw (15 mg/kg x 2 days, group H, Day 20, Cp Mouse Efficacy 2): 10848 RLU
RLU standardized by fecal weight (15 mg/kg x 2 days, group H, day 6 p.i., Cp Mouse Efficacy 2): 118950 RLU
RLU standardized by fecal weight (15 mg/kg x 2 days, group H, day 7 p.i., Cp Mouse Efficacy 2): 269383 RLU
RLU standardized by fecal weight (15 mg/kg x 2 days, group H, day 8 p.i., Cp Mouse Efficacy 2): 14630 RLU
RLU standardized by fecal weight (15 mg/kg x 2 days, group H, day 9 p.i., Cp Mouse Efficacy 2): 18635 RLU
RLU standardized by fecal weight (15 mg/kg x 2 days, group H, day 10 p.i., Cp Mouse Efficacy 2): 18370 RLU
RLU standardized by fecal weight (15 mg/kg x 2 days, group H, day 13 p.i., Cp Mouse Efficacy 2): 1962 RLU
RLU standardized by fecal weight (15 mg/kg x 2 days, group H, day 15 p.i., Cp Mouse Efficacy 2): 2387 RLU
RLU standardized by fecal weight (15 mg/kg x 2 days, group H, day 17 p.i., Cp Mouse Efficacy 2): 1160 RLU
RLU standardized by fecal weight (15 mg/kg x 2 days, group H, day 20 p.i., Cp Mouse Efficacy 2): 4094 RLU
RLU Raw (15 mg/kg x 3 days, group I, Day 6, Cp Mouse Efficacy 2): 932240 RLU
RLU Raw (15 mg/kg x 3 days, group I, Day 7, Cp Mouse Efficacy 2): 627218 RLU
RLU Raw (15 mg/kg x 3 days, group I, Day 8, Cp Mouse Efficacy 2): 396768 RLU
RLU Raw (15 mg/kg x 3 days, group I, Day 9, Cp Mouse Efficacy 2): 37984 RLU
RLU Raw (15 mg/kg x 3 days, group I, Day 10, Cp Mouse Efficacy 2): 6160 RLU
RLU Raw (15 mg/kg x 3 days, group I, Day 13, Cp Mouse Efficacy 2): 1280 RLU
RLU Raw (15 mg/kg x 3 days, group I, Day 15, Cp Mouse Efficacy 2): 656 RLU
RLU Raw (15 mg/kg x 3 days, group I, Day 17, Cp Mouse Efficacy 2): 496 RLU
RLU Raw (15 mg/kg x 3 days, group I, Day 20, Cp Mouse Efficacy 2): 864 RLU
